Reference: publication PMC9538320 (Protein Science : A Publication of the Protein Society, 2022)

Target: SARS-CoV-2 protein 7a ectodomain (protein 7a ECD) (Severe acute respiratory syndrome coronavirus 2, UniProt P0DTC7)
Assay: biochemical

Sequence of SARS-CoV-2 protein 7a ectodomain (protein 7a ECD) (P0DTC7 16-95): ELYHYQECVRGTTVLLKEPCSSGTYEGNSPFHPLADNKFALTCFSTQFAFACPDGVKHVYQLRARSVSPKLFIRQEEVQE

With `C=CC1=C(C)C2=Cc3c(C=C)c(C)c4[n]3[Fe]([Cl])[n]3c(c(C)c(CCC(=O)O)c3=CC3=NC(=C4)C(C)=C3CCC(=O)O)=CC1=N2` [heme] the Kd was 0.469 ± 0.027 µM.
